Measurements as given in patent US20120258975A1, “Potent Small Molecule Inhibitors of Autophagy, and Methods of Use Thereof” (Shanghai Institute of Organic Chemistry, priority 2009, published 2012).

How the values were obtained:
LC3 = LC3 western blotting in MEF cells; format: cell-based, mouse; conditions: 4 hours, 10 μM, rapamycin 0.2 μM
Description: (§1) FIG. 5 depicts results related to showing that active derivatives of MBCQ reduce the levels of LC3II in MEF cells. […] The cell lysates were collected for western blotting using anti-LC3 antibody. B, Electron microscopy confirmation of the autophagy inhibitory effects of C43 (spautin) on MEF cells. MEF cells were treated with vehicle control (1‰ DMSO), and other indicated compounds for 4 h. Rapamycin (0.2 μM) and C43 (spautin) (10 μM). Then the cells were fixed with glutaraldehyde and prepared the sample for EM assay. Bar, 1:11,000. Arrows indicate double and multi-membrane autophagosomic vesicles. N: nucleus.
To confirm the inhibitory activity on autophagy, mouse embryo fibroblasts (MEF) cells were treated with C29, C43 or C71 for 4 hours in the presence or absence of rapamycin and the levels of autophagy were determined by LC3 western blotting. […] (FIG. 5A).

MDA-MB-231 cells = assay: MDA-MB-231 cell survival under serum free condition; format: cell-based
Description: Since autophagy is activated under metabolic stress conditions to support cell survival, compounds were tested to determine if they promote cell death under starvation condition.

Bcap-37 cells = assay: Bcap-37 cells, normal and glucose free condition; format: cell-based
Description: (§2) FIG. 11 depicts results showing that selected cancer cell lines are sensitive to MBCQ and its active derivatives under glucose free condition. BT549 cells were treated with indicated concentrations of C43 for 24 h in normal DMEM (A) or under serum free condition (B). The cell viability was assayed by MTT or harvested for western blotting assay with anti-LC3 (C). MCF-7 cells were treated with DMSO (1‰), C43 (10 μM) in DMEM with (D) or without (E) glucose, for 12 h. The cell viability was assayed by MTT or images (F). […] Bcap-37 cells were treated with indicated concentrations of C43 for 24 h in normal DMEM (H) or under serum free condition (I). The cell viability was assayed by MTT or images (J) And the cell lysates treated with C43 for indicated time were analyzed by western blotting using anti-PARP (L) or anti-LC3 (M) and α-tubulin was used as a loading control. (K) Cell cycle profile of Bcap-37 treated with C43. Bcap-37 cells were treated with DMSO (0.1%) (left figure), C43 (10 μM) (right figure) for 12 h. The cells were then fixed with 70% ethanol, stained with propidium iodide (PI, 40 μg/mL) and treated with RNase enzyme (200 μg/mL) solution for 30 min in dark. Cell cycle profile and possible apoptotic death were statistics analyzed by flow cytometer.
To explore the mechanism by which C43 induces the death of Bcap-37 cells, the DNA content was analyzed by FACS.

[1] = test system: USP3, USP10, USP13, USP16, USP18; assay: USP protein levels (western blot)
Description: H4 cells were transfected with indicated siRNAs for 72 hrs or treated with rapamycin (0.2 μM) or spautin (10 μM) for 4 hrs, and non-target siRNA (N. T. siRNA) was used as negative control. The cell lysates were harvested and analyzed by western blotting using (Left): antibodies specific for the indicated proteins. Anti-α-tubulin was used as loading controls.

[2] = test system: USP10/Beclin1 and USP13/Beclin1 interaction; assay: USP10 or USP13 / GFP-Beclin1 co-immunoprecipitation in 293T cells; format: cell-based; conditions: 10 μM, 4 h, with MG132
Description: To further confirm that USP10 and USP13 are the deubiquitinating proteases of Vps34 complexes, the interaction of Flag-USP10/GFP-Beclin1 and Myc-USP13/GFP-Beclin1 in 293T cells was assayed with immunoprecipitation. […] Furthermore, this may provide a mechanism to explain why beclin1 is frequently lost in many kinds of cancers as the loss of beclin1 may lead to a reduction of p53 by inhibiting its deubiquitining proteases.

MCF-7 cells = MCF-7 cells under glucose-free condition; format: cell-based
Description: as §2, with “cytometer. […]” for “cytometer.”

MEF cells = assay: Electron microscopy of MEF cells; format: cell-based, mouse; conditions: rapamycin (0.2 μM) plus compound, 4 h
Description: as §1
The effect of C29 and C43 on autophagy was further confirmed by electron microscopy. In rapamycin treated MEF cells, numerous autophagosome vesicles with double membranes were observed, as well as many vesicles with multi-membrane as expected (FIG. 5B).

[3] = target: USP10 and USP13 interaction (Homo sapiens, UniProt Q14694+Q92995); assay: GFP-USP10 / Myc-USP13 co-immunoprecipitation in 293T cells
[4] = test system: major intracellular organelles; assay: Markers of intracellular organelles; format: cell-based
Description: The effects of MBCQ on early endosomes using immunostaining of EEA1 as a marker, lysosomes using immunostaining of lamp2 as a marker or lysotracker, trans-Golgi using GalT-YFP as a marker was determined. No effect of MBCQ was detected in any of these experiments.

H4 cells [5] = assay: H4 cell growth and cell cycle; format: cell-based; conditions: 5 μM for 24 h and 48 h
Description: FIG. 6 depicts results showing that MBCQ has little effect on H4 cell growth. A, H4 cells were treated with MBCQ (5 μM) for 5 days and harvested daily for cell number counting in the presence of trypan blue; B, H4 cells were treated with MBCQ (5 μM) for 24 h and 48 h, and then cells were fixed with 70% ethanol, stained with propidium iodide (40 μg/mL) and incubated with RNase (200 μg/mL solution for 30 min. The cell cycle profile and possible apoptotic cell death were analyzed by flow cytometer.
To characterize the effect of MBCQ on cellular activity, the effect of MBCQ on cell survival and cell cycle was determined as outlined below. H4 cells were treated with MBCQ (5 μM) for 5 days and harvested daily for cell number counting in the presence of trypan blue. […] The cell cycle profile and possible apoptotic cells in H4 cells treated with MBCQ (5 μM) for 24 h and 48 h was also determined.

mTOR pathway = assay: Western blotting of mTOR pathway phosphorylation; format: cell-based
Excerpt: Since MBCQ inhibits autophagy induced by rapamycin and starvation, it was first determined if MBCQ affects the activity of mTOR. […] Thus, it was concluded that MBCQ has no effect for the mTOR pathway or type I PI3 kinase.

H4 cells [6] = assay: Electron microscopy of H4 cells; format: cell-based
Description: FIG. 3 depicts electron microscopy analysis of the effect of MBCQ on autophagy. H4 cells were treated with 0.1% DMSO (vehicle), rapamycin (0.2 μM), MBCQ (10 μM), or MBCQ and rapamycin for 4 h. The cells were processed and imaged by EM.
The ultra-structure of cells treated with rapamycin was determined in the presence or absence of MBCQ. […] Treatment of rapamycin led to the formation of a large numbers of autophagosomes with characteristic double membrane.

Sequence of USP10 and USP13 interaction (Q14694 whole entry): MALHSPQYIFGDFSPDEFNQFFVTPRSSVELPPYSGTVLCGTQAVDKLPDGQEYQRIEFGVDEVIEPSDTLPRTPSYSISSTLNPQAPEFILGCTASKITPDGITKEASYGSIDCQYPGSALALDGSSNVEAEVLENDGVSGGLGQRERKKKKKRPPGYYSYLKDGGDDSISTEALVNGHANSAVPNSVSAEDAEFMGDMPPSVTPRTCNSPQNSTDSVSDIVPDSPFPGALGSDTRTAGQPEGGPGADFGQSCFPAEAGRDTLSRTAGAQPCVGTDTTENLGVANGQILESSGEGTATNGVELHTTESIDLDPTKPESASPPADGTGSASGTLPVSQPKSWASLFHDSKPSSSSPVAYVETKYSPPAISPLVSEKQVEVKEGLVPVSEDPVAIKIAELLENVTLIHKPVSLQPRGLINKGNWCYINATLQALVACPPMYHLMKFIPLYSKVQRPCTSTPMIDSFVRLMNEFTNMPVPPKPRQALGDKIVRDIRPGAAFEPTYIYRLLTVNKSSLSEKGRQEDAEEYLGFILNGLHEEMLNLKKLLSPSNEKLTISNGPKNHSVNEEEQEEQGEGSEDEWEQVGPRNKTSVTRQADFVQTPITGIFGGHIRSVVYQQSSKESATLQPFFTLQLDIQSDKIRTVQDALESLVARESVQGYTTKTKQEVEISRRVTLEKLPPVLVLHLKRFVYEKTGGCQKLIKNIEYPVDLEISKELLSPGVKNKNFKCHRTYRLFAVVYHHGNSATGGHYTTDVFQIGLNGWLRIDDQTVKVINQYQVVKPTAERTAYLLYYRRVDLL
Sequence of USP10 and USP13 interaction (Q92995 whole entry): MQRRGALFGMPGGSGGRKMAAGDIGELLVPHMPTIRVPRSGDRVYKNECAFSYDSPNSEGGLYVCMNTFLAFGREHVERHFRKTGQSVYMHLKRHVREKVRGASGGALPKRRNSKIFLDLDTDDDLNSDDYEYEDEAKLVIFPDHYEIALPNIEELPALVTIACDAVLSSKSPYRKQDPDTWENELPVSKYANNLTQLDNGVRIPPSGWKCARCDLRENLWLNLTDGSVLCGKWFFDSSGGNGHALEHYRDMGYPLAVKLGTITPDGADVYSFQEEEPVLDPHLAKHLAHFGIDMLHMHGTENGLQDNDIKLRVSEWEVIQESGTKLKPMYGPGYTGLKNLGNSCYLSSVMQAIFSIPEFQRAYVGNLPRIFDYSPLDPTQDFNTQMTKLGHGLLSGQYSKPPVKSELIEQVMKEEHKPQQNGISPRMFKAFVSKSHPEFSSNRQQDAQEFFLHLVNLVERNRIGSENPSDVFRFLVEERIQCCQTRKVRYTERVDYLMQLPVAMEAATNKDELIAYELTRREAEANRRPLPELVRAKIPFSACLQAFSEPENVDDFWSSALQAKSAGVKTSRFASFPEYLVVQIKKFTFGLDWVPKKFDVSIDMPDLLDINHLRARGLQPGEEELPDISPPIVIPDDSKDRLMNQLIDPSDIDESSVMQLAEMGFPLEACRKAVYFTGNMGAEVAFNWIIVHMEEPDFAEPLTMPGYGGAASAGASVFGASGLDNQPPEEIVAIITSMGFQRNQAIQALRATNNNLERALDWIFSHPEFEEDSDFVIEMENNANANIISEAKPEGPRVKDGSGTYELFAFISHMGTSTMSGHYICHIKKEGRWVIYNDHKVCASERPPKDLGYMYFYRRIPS

Compound	autophagy induced by rapamycin (LC3 western blotting) (LC3)	cell survival (MDA-MB-231 cells)	autophagy (western blot) (Bcap-37 cells; basal and glucose-free conditions)	sensitivity of cells to compound (Bcap-37 cells; glucose free condition)	DNA content by FACS (Bcap-37 cells; glucose-free condition)	proliferation (Bcap-37 cells; in the presence of 10% bovine serum)	levels of USP13 and USP10 ([1]; 293T cells and Bcap-37 cells)	levels of USP44 ([1]; 293T cells and Bcap-37 cells)	levels of USP3, USP10, USP13, USP16 and USP18 ([1]; H4 cells, 10 μM, 4 hrs)	interaction of Flag-USP10 with GFP-Beclin1 [2]	autophagy (western blot, LC3) (MCF-7 cells; basal and glucose-free condition)	cell survival (MCF-7 cells; glucose-free condition)	autophagosomes (MEF cells)	GFP-USP10 and Myc-USP13 interaction [3]	early endosomes (EEA1), lysosomes (lamp2, lysotracker), trans-Golgi (GalT-YFP) [4]	cell cycle distribution (H4 cells [5])	phosphorylation of GSK-3α/β, AKT (mTOR pathway)	phosphorylation of mTOR and its targets, p70S6K and S6 (mTOR pathway; control or rapamycin treated cells)	cell morphology (H4 cells [6]; MBCQ alone for 4 h)	double membrane autophagosomes (H4 cells [6]; rapamycin (0.2 μM) and MBCQ (10 μM) together, 4 h)
Fc1ccc(CNc2ncnc3ccc(F)cc23)cc1 [C43, 6-fluoro-N-(4-fluorobenzyl)quinazolin-4-amine]	inhibited autophagy induced by rapamycin	reduced the survival	inhibited autophagy	highly sensitive	induced a peak of sub-diploid DNA	inhibited the proliferation	reduce the levels of USP13 and USP10	little effect	reduced the levels of these five USPs	impair the interaction	inhibited autophagy	reduced the survival	autophagosomes are largely absent	the interaction was inhibited	–	–	–	–	–	–
Clc1ccc2ncnc(NCc3ccc4c(c3)OCO4)c2c1 [MBCQ]	–	–	–	–	–	–	–	–	–	–	–	–	–	–	No effect	no detectable effect on cell cycle distribution	Nor does MBCQ have any effect	no effect on the phosphorylation of mTOR and its targets	morphologically similar to that control	conspicuously absent
